Laboratory results from PubChem BioAssay AID2060330 (Molecular Pharmacology Branch, DTP, NCI, 2025).

Tested on: LG0703-F948-PDC spheroids with HUVEC/MSC, viability
Assay: Anticancer human tumor LG0703-F948-PDC patient-derived lung adenocarcinoma cell line growth inhibition [IpAb]
Details: for IC50: curve of first compound; for viability, T/C: stronger effect = lower value
Outline: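 Combinations with ipatasertib or abemaciclib were tested on tumour spheroids holding HUVEC (25%) and MSC (15%) alongside 60% malignant cells. Top concentration was at or near clinical Cmax (10 microM if undefined), descending in half-log steps.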

[1] = second compound 0.01 µM, first compound 0.0316 µM
[2] = second compound 0.01 µM, first compound 0.1 µM
[3] = second compound 0.01 µM, first compound 0.316 µM
[4] = second compound 0.01 µM, first compound 1 µM
[5] = second compound 0.01 µM, first compound 3.16 µM
[6] = second compound 0.01 µM, first compound 10 µM
[7] = second compound 0.0316 µM, first compound 0.0316 µM
[8] = second compound 0.0316 µM, first compound 0.1 µM
[9] = second compound 0.0316 µM, first compound 0.316 µM
[10] = second compound 0.0316 µM, first compound 1 µM
[11] = second compound 0.0316 µM, first compound 3.16 µM
[12] = second compound 0.0316 µM, first compound 10 µM
[13] = second compound 0.1 µM, first compound 0.0316 µM
[14] = second compound 0.1 µM, first compound 0.1 µM
[15] = second compound 0.1 µM, first compound 0.316 µM
[16] = second compound 0.1 µM, first compound 1 µM
[17] = second compound 0.1 µM, first compound 3.16 µM
[18] = second compound 0.1 µM, first compound 10 µM
[19] = second compound 0.316 µM, first compound 0.0316 µM
[20] = second compound 0.316 µM, first compound 0.1 µM
[21] = second compound 0.316 µM, first compound 0.316 µM
[22] = second compound 0.316 µM, first compound 1 µM
[23] = second compound 0.316 µM, first compound 3.16 µM
[24] = second compound 0.316 µM, first compound 10 µM
[25] = second compound 1 µM, first compound 0.0316 µM
[26] = second compound 1 µM, first compound 0.1 µM
[27] = second compound 1 µM, first compound 0.316 µM
[28] = second compound 1 µM, first compound 1 µM
[29] = second compound 1 µM, first compound 3.16 µM
[30] = second compound 1 µM, first compound 10 µM
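Also: spheroids exposed to compounds for seven days before readout.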
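For viability, T/C in this document: T/C percent relative to DMSO vehicle wells set as 100% viability.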

## C=CCn1c(=O)c2cnc(Nc3ccc(N4CCN(C)CC4)cc3)nc2n1-c1cccc(C(C)(C)O)n1 + CCN1CCN(Cc2ccc(Nc3ncc(F)c(-c4cc(F)c5nc(C)n(C(C)C)c5c4)n3)nc2)CC1
Second compound 0.01 µM
  IC50: 1.16 µM
Second compound 0.0316 µM
  IC50: 1.01 µM
Second compound 0.1 µM
  IC50: 0.898 µM
Second compound 0.316 µM
  IC50: 0.862 µM
Second compound 1 µM
  IC50: 0.421 µM
[1]
  viability, T/C: 120%
[2]
  viability, T/C: 101%
[3]
  viability, T/C: 86%
[4]
  viability, T/C: 58.9%
[5]
  viability, T/C: 17.3%
[6]
  viability, T/C: 8.27%
[7]
  viability, T/C: 99.6%
[8]
  viability, T/C: 94.1%
[9]
  viability, T/C: 78.7%
[10]
  viability, T/C: 53.2%
[11]
  viability, T/C: 16.6%
[12]
  viability, T/C: 6.85%
[13]
  viability, T/C: 95.8%
[14]
  viability, T/C: 76.5%
[15]
  viability, T/C: 71.2%
[16]
  viability, T/C: 53.5%
[17]
  viability, T/C: 16%
[18]
  viability, T/C: 4.26%
[19]
  viability, T/C: 85.3%
[20]
  viability, T/C: 79.6%
[21]
  viability, T/C: 69.4%
[22]
  viability, T/C: 47.7%
[23]
  viability, T/C: 21.4%
[24]
  viability, T/C: 7.46%
[25]
  viability, T/C: 88.4%
[26]
  viability, T/C: 69.8%
[27]
  viability, T/C: 51.8%
[28]
  viability, T/C: 40.1%
[29]
  viability, T/C: 21.8%
[30]
  viability, T/C: 3.5%

## CC(C)n1nc(-c2ccc3oc(N)nc3c2)c2c(N)ncnc21 + CCN1CCN(Cc2ccc(Nc3ncc(F)c(-c4cc(F)c5nc(C)n(C(C)C)c5c4)n3)nc2)CC1
Second compound 0.01 µM
  IC50: 0.00438 µM
Second compound 0.0316 µM
  IC50: 0.0033 µM
Second compound 0.1 µM
  IC50: 0.00423 µM
Second compound 0.316 µM
  IC50: 0.00616 µM
Second compound 1 µM
  IC50: 0.00398 µM
Second compound 0.01 µM, first compound 0.000316 µM
  viability, T/C: 112%
Second compound 0.01 µM, first compound 0.001 µM
  viability, T/C: 78.6%
Second compound 0.01 µM, first compound 0.00316 µM
  viability, T/C: 56.5%
Second compound 0.01 µM, first compound 0.01 µM
  viability, T/C: 38%
[1]
  viability, T/C: 24%
[2]
  viability, T/C: 21.4%
Second compound 0.0316 µM, first compound 0.000316 µM
  viability, T/C: 87.9%
Second compound 0.0316 µM, first compound 0.001 µM
  viability, T/C: 70.1%
Second compound 0.0316 µM, first compound 0.00316 µM
  viability, T/C: 52%
Second compound 0.0316 µM, first compound 0.01 µM
  viability, T/C: 33.9%
[7]
  viability, T/C: 22.3%
[8]
  viability, T/C: 21.8%
Second compound 0.1 µM, first compound 0.000316 µM
  viability, T/C: 87.4%
Second compound 0.1 µM, first compound 0.001 µM
  viability, T/C: 71.2%
Second compound 0.1 µM, first compound 0.00316 µM
  viability, T/C: 52.1%
Second compound 0.1 µM, first compound 0.01 µM
  viability, T/C: 40.5%
[13]
  viability, T/C: 29.3%
[14]
  viability, T/C: 22.3%
Second compound 0.316 µM, first compound 0.000316 µM
  viability, T/C: 82.5%
Second compound 0.316 µM, first compound 0.001 µM
  viability, T/C: 77.1%
Second compound 0.316 µM, first compound 0.00316 µM
  viability, T/C: 58.4%
Second compound 0.316 µM, first compound 0.01 µM
  viability, T/C: 43%
[19]
  viability, T/C: 32%
[20]
  viability, T/C: 24.8%
Second compound 1 µM, first compound 0.000316 µM
  viability, T/C: 90%
Second compound 1 µM, first compound 0.001 µM
  viability, T/C: 65%
Second compound 1 µM, first compound 0.00316 µM
  viability, T/C: 48.1%
Second compound 1 µM, first compound 0.01 µM
  viability, T/C: 46.6%
[25]
  viability, T/C: 44.1%
[26]
  viability, T/C: 28.8%

## CC1(C)CCC(CN2CCN(c3ccc(C(=O)NS(=O)(=O)c4ccc(NCC5CCOCC5)c([N+](=O)[O-])c4)c(Oc4cnc5[nH]ccc5c4)c3)CC2)=C(c2ccc(Cl)cc2)C1 + CCN1CCN(Cc2ccc(Nc3ncc(F)c(-c4cc(F)c5nc(C)n(C(C)C)c5c4)n3)nc2)CC1
Second compound 0.01 µM
  IC50: 5.08 µM
Second compound 0.0316 µM
  IC50: 5 µM
Second compound 0.1 µM
  IC50: 4.92 µM
Second compound 0.316 µM
  IC50: 4.12 µM
Second compound 1 µM
  IC50: 1.29 µM
[1]
  viability, T/C: 102%
[2]
  viability, T/C: 100%
[3]
  viability, T/C: 100%
[4]
  viability, T/C: 87.2%
[5]
  viability, T/C: 77.9%
[6]
  viability, T/C: 13.5%
[7]
  viability, T/C: 81.8%
[8]
  viability, T/C: 102%
[9]
  viability, T/C: 84.3%
[10]
  viability, T/C: 91%
[11]
  viability, T/C: 75.3%
[12]
  viability, T/C: 11.4%
[13]
  viability, T/C: 92.4%
[14]
  viability, T/C: 86.8%
[15]
  viability, T/C: 72.3%
[16]
  viability, T/C: 88.5%
[17]
  viability, T/C: 73.8%
[18]
  viability, T/C: 11.3%
[19]
  viability, T/C: 87.9%
[20]
  viability, T/C: 88.8%
[21]
  viability, T/C: 79.9%
[22]
  viability, T/C: 79%
[23]
  viability, T/C: 62.6%
[24]
  viability, T/C: 11.1%
[25]
  viability, T/C: 85%
[26]
  viability, T/C: 79%
[27]
  viability, T/C: 46.9%
[28]
  viability, T/C: 65.8%
[29]
  viability, T/C: 36.9%
[30]
  viability, T/C: 2.51%

## CCCS(=O)(=O)Nc1ccc(F)c(C(=O)c2c[nH]c3ncc(-c4ccc(Cl)cc4)cc23)c1F + CCN1CCN(Cc2ccc(Nc3ncc(F)c(-c4cc(F)c5nc(C)n(C(C)C)c5c4)n3)nc2)CC1
Second compound 0.01 µM
  IC50: > 10 µM
Second compound 0.0316 µM
  IC50: > 10 µM
Second compound 0.1 µM
  IC50: > 10 µM
Second compound 0.316 µM
  IC50: > 10 µM
Second compound 1 µM
  IC50: > 10 µM
[1]
  viability, T/C: 112%
[2]
  viability, T/C: 115%
[3]
  viability, T/C: 101%
[4]
  viability, T/C: 99.1%
[5]
  viability, T/C: 100%
[6]
  viability, T/C: 59.5%
[7]
  viability, T/C: 94.5%
[8]
  viability, T/C: 86.9%
[9]
  viability, T/C: 95.1%
[10]
  viability, T/C: 89.5%
[11]
  viability, T/C: 90.9%
[12]
  viability, T/C: 67.2%
[13]
  viability, T/C: 91%
[14]
  viability, T/C: 81.6%
[15]
  viability, T/C: 91.7%
[16]
  viability, T/C: 90.9%
[17]
  viability, T/C: 87.2%
[18]
  viability, T/C: 59.1%
[19]
  viability, T/C: 89%
[20]
  viability, T/C: 97.3%
[21]
  viability, T/C: 76.6%
[22]
  viability, T/C: 88.1%
[23]
  viability, T/C: 79%
[24]
  viability, T/C: 51.5%
[25]
  viability, T/C: 90.6%
[26]
  viability, T/C: 68.2%
[27]
  viability, T/C: 52.5%
[28]
  viability, T/C: 80%
[29]
  viability, T/C: 75.6%
[30]
  viability, T/C: 44.8%

## Cn1cnc2c(F)c(Nc3ccc(Br)cc3Cl)c(C(=O)NOCCO)cc21 + CCN1CCN(Cc2ccc(Nc3ncc(F)c(-c4cc(F)c5nc(C)n(C(C)C)c5c4)n3)nc2)CC1
Second compound 0.01 µM
  IC50: 0.27 µM
Second compound 0.0316 µM
  IC50: 0.132 µM
Second compound 0.1 µM
  IC50: 0.0541 µM
Second compound 0.316 µM
  IC50: 0.288 µM
Second compound 1 µM
  IC50: 0.0416 µM
Second compound 0.01 µM, first compound 0.00949 µM
  viability, T/C: 83%
Second compound 0.01 µM, first compound 0.03 µM
  viability, T/C: 74.6%
Second compound 0.01 µM, first compound 0.0949 µM
  viability, T/C: 55.4%
Second compound 0.01 µM, first compound 0.3 µM
  viability, T/C: 52.6%
Second compound 0.01 µM, first compound 0.949 µM
  viability, T/C: 46.7%
Second compound 0.01 µM, first compound 3 µM
  viability, T/C: 45%
Second compound 0.0316 µM, first compound 0.00949 µM
  viability, T/C: 80.4%
Second compound 0.0316 µM, first compound 0.03 µM
  viability, T/C: 61.5%
Second compound 0.0316 µM, first compound 0.0949 µM
  viability, T/C: 51.9%
Second compound 0.0316 µM, first compound 0.3 µM
  viability, T/C: 46.2%
Second compound 0.0316 µM, first compound 0.949 µM
  viability, T/C: 46.1%
Second compound 0.0316 µM, first compound 3 µM
  viability, T/C: 39.8%
Second compound 0.1 µM, first compound 0.00949 µM
  viability, T/C: 68.8%
Second compound 0.1 µM, first compound 0.03 µM
  viability, T/C: 54.5%
Second compound 0.1 µM, first compound 0.0949 µM
  viability, T/C: 43.9%
Second compound 0.1 µM, first compound 0.3 µM
  viability, T/C: 44.1%
Second compound 0.1 µM, first compound 0.949 µM
  viability, T/C: 45.2%
Second compound 0.1 µM, first compound 3 µM
  viability, T/C: 37%
Second compound 0.316 µM, first compound 0.00949 µM
  viability, T/C: 72.7%
Second compound 0.316 µM, first compound 0.03 µM
  viability, T/C: 64.9%
Second compound 0.316 µM, first compound 0.0949 µM
  viability, T/C: 48%
Second compound 0.316 µM, first compound 0.3 µM
  viability, T/C: 54.4%
Second compound 0.316 µM, first compound 0.949 µM
  viability, T/C: 48.8%
Second compound 0.316 µM, first compound 3 µM
  viability, T/C: 41.7%
Second compound 1 µM, first compound 0.00949 µM
  viability, T/C: 70.1%
Second compound 1 µM, first compound 0.03 µM
  viability, T/C: 53.6%
Second compound 1 µM, first compound 0.0949 µM
  viability, T/C: 38.4%
Second compound 1 µM, first compound 0.3 µM
  viability, T/C: 44%
Second compound 1 µM, first compound 0.949 µM
  viability, T/C: 39.2%
Second compound 1 µM, first compound 3 µM
  viability, T/C: 41.5%
